Measurements: patent US9399635B2, “Pyrazole derivative” (GREEN TECH CO., LTD., priority 2011, dated 2016)

Tests used:
[1] = tested on: sarcosyl-insoluble tau in the brain of tau N279K Tg mice; test: Tau aggregation inhibitory activity in mice with oral administration (brain sarcosyl-insoluble tau ELISA); type: in vivo; details: oral 10, 20, or 40 mg/kg bw/day, four weeks (FIG. 4)
Method: Pharmacological test example 6: Determination of tau aggregation inhibitory activity in mice with oral administration
To tau N279K Tg mice (male, 8 months old, n=8), the compound of Example 2 was orally administered and the tau concentration in the brain was measured. The administration vehicle was an 80% PEG 400 aqueous solution. The dose volume was 10 mL/kg bw/day and the dose was adjusted to be 10, 20, or 40 mg/kg bw/day. To Vehicle group, 10 mL/kg bw/day of an 80% PEG 400 aqueous solution was administered. To Positive control compound group, methylene blue (MB) adjusted to be 40 mg/kg bw/day was administered. Administration was performed with an oral feeding tube (Fuchigami Kikai Company) by gavage and continued for four weeks. After termination of the administration, the mice were sacrificed under pentobarbital anesthesia and the brain was harvested. The brain was homogenized after addition of a 5-fold volume of a high salt buffer (0.8 M NaCl, 1 mM EGTA, 10 mM Tris-HCl, 10% sucrose). […] An amount of 100 μL of a reaction stop solution was added to stop the chromogenic reaction and the absorbance was measured at 450 nm with a microplate reader. The tau concentration was determined from the standard curve produced from the measured values of the standard curve dilution series.

[2] = molecular target: recombinant three-repeat microtubule-binding domain (3R-MBD) of tau protein (Homo sapiens, UniProt P10636); test: Determination of tau aggregation inhibitory activity (heparin-induced, thioflavin T fluorescence; electron microscope); type: biochemical
Method: Pharmacological Test Example 1: Determination of Tau Aggregation Inhibitory Activity
A recombinant three-repeat microtubule-binding domain (3R-MBD) of tau protein was expressed in E. coli and was purified and used for the experiment. The purified tau solution was diluted with a 50 mM Tris-HCl buffer (pH 7.6) to a final concentration of 10 μM. The test compounds were prepared using dimethylsulfoxide (DMSO) at 20-fold of their final concentrations and added to the plate so that the DMSO concentration would be 5%. Heparin was added to the plate so that the final concentration would be 10 μM and the plate was left to stand at 37° C. for 16 hours. Thioflavin T was added to the plate so that the concentration would be 10 μM and the fluorescence intensity was measured with a fluorescence plate reader (PerkinElmer, Inc.) (excitation wavelength: 440 nm; emission wavelength: 480 nm).
The final concentration of each compound at the time of measurement was set at 0.1, 0.3, 1, 3, and 10 μM. The sample to which only DMSO was added was used as a negative control and its fluorescence intensity was taken as 0% inhibitory activity.
The samples were placed on a grid and washed with distilled water. A 1 mM phosphotungstic acid aqueous solution was added to the samples. The samples were washed, dried overnight, and observed.

[3] = tested on: Aβ 1-42 in the brain of APPswe/PS1dE9 Tg mice; test: Aβ aggregation inhibitory activity and Aβ production inhibitory activity in mice with oral administration (brain Aβ 1-42 ELISA); type: in vivo; details: oral 25 or 50 mg/kg bw/day, four weeks (FIG. 3)
Method: Pharmacological test example 5: Determination of Aβ aggregation inhibitory activity and Aβ production inhibitory activity in mice with oral administration
To APPswe/PS1dE9 Tg mice (male, 10 to 12 months old, n=8 to 10), the compound of Example 2 was orally administered and the concentration of Aβ in the brain was measured. The administration vehicle was an 80% PEG 400 aqueous solution. The dose volume was 10 mL/kg bw/day and the dose was adjusted to be 25 mg/kg bw/day or 50 mg/kg bw/day. To Vehicle group, 10 mL/kg bw/day of an 80% PEG 400 aqueous solution was administered. Administration was performed with an oral feeding tube (Fuchigami Kikai Company) by gavage and continued for four weeks. After termination of the administration, the mice were sacrificed under pentobarbital anesthesia and the brain was harvested. The brain was homogenized after addition of a 10-fold volume of a phosphoric acid buffer (pH 7.4) and the homogenate was centrifuged at 4° C., 16,000 g for 1 hour. The centrifugal supernatant was used as a soluble protein sample. […] An amount of 100 μL of a reaction stop solution was added to stop the chromogenic reaction and the absorbance was measured at 450 nm with a microplate reader (Bio-Rad). The Aβ concentration was determined from the standard curve produced from the measured values of the standard curve dilution series.

Chain of recombinant three-repeat microtubule-binding domain (3R-MBD) of tau protein (P10636 186-279 isoform P10636-2 limits assumed): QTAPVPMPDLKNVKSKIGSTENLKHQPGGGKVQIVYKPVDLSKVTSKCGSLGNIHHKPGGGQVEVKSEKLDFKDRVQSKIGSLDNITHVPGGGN

## COc1cc(OCc2ccccn2)ccc1/C=C/c1cc(/C=C/c2ccc3cc[nH]c3c2)[nH]n1 [Example 2, 3-[(1E)-2-(1H-indol-6-yl)ethenyl]-5-[(1E)-2-[2-methoxy-4-(2-pyridylmethoxy)phenyl]ethenyl]-1H-pyrazole]
[1]
  amount of the sarcosyl-insoluble tau in the brain: decreased in a dose-dependent manner
[2]; 0.1 μM and 1 μM, compared with DMSO only (FIG. 1)
  tau aggregate formation observed with an electron microscope: less tau aggregate formation
[2]; 3R-MBD tau 10 μM, heparin 10 μM, 37° C. for 16 hours, thioflavin T, read-out: IC50 (μM) Test example 1 (tau aggregation inhibitory activity)
  IC50: 0.92 µM
[3]
  amount of insoluble Aβ 1-42 in the brain: decreased in a dose-dependent manner
  amount of soluble Aβ 1-42 in the brain: decreased in a dose-dependent manner
